Results published in patent US9695155B2, “Herbicidal substituted pyrimidinyloxy benzene compounds” (E. I. DU PONT DE NEMOURS AND COMPANY, priority 2013, dated 2017).

Key:
Italian ryegrass = experiment: Test C postemergence; format: in vivo, Lolium multiflorum; conditions: Lolium multiflorum, post-emergence
Outline: (§1)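 Plants were kept under greenhouse conditions for 13–15 days following spray. Pre-emergent application went to soil (loam–sand), post-emergent to foliage at 1–4 leaves. Evaluation: visual, percent control against untreated checks.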

sedge, umbrella = experiment: Test B flooded paddy test; format: in vivo, Cyperus difformis; conditions: Cyperus difformis, Flood, 250 g ai/ha; 0 to 100 scale where 0 is no effect and 100 is complete control; read-out: Plant response rating, Sedge, Umbrella
Outline: (§2)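 Evaluation is visual, against untreated controls, 13 to 15 days after treatment. Before treatment, plants reached the 2-leaf stage; pots were then flooded 3 cm deep, compound was added to the water, and that level was maintained. Ratings run 0 to 100, with 100 meaning complete control.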

wild oat = experiment: Test C postemergence; format: in vivo, Avena fatua; conditions: Avena fatua, post-emergence
Outline: as §1

yellow nutsedge = experiment: Test C postemergence; format: in vivo, Cyperus esculentus; conditions: Cyperus, post-emergence
Outline: as §1

velvetleaf = experiment: Test C postemergence; format: in vivo, Abutilon theophrasti; conditions: Abutilon theophrasti, post-emergence
Outline: as §1

barnyardgrass [1] = experiment: Test C postemergence; format: in vivo, Echinochloa crus-galli; conditions: Echinochloa crus-galli, post-emergence
Outline: as §1

giant foxtail = experiment: Test C preemergence; format: in vivo, Setaria faberii; conditions: Setaria faberi, pre-emergence
Outline: as §1

barnyardgrass [2] = experiment: Test A postemergence; format: in vivo, Echinochloa crus-galli; conditions: Echinochloa crus-galli, post-emergence, 240 h, 0 to 100 scale where 0 is no effect and 100 is complete control
Outline: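 Visual injury scored 0–100 (100 = complete control) against untreated controls about 10 days after treatment in a greenhouse. Test chemicals, formulated with surfactant in non-phytotoxic solvent, were sprayed on soil preemergence or on 2-10 cm, one- to two-leaf plants postemergence.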

pigweed = experiment: Test C postemergence; format: in vivo, Amaranthus retroflexus; conditions: Amaranthus retroflexus, post-emergence
Outline: as §1

corn = experiment: Test C preemergence; format: in vivo, Zea mays; conditions: Zea mays, pre-emergence
Outline: as §1

waterhemp = experiment: Test C postemergence; format: in vivo, Amaranthus rudis; conditions: Amaranthus tuberculatus, post-emergence
Outline: as §1

johnsongrass = experiment: Test C postemergence; format: in vivo, Sorghum halepense; conditions: Sorghum halepense, post-emergence
Outline: as §1

barnyardgrass [3] = experiment: Test B flooded paddy test; format: in vivo, Echinochloa crus-galli; conditions: Echinochloa crus-galli; Flood, 250 g ai/ha; 0 to 100 scale where 0 is no effect and 100 is complete control; read-out: Plant response rating, Barnyardgrass
Outline: as §2

FC(F)(F)COc1cnn(-c2ccccc2Oc2ncc(Cl)cn2)c1 [Compound 138, 5-chloro-2-[2-[4-(2,2,2-trifluoroethoxy)-1H-pyrazol-1-yl]phenoxy]pyrimidine]
pest or weed control at 16 g/ha (Italian ryegrass; 16 g ai/ha, postemergence, 0 is no effect, 100 is complete control, read-out: Plant response rating (0 to 100), Ryegrass, Italian): 0% | pest or weed control at 125 g/ha (Italian ryegrass; 125 g ai/ha, postemergence, visual rating, scale 0 to 100 (0 no effect, 100 complete control), read-out: Plant response rating, Ryegrass, Italian): 5% | pest or weed control at 62 g/ha (Italian ryegrass; Postemergence, 62 g ai/ha, scale 0 to 100 (0 no effect, 100 complete control), read-out: Plant response rating, Ryegrass, Italian): 0% | pest or weed control at 250 g/ha (sedge, umbrella): 75% | pest or weed control at 16 g/ha (wild oat; 16 g ai/ha, postemergence, 0 is no effect, 100 is complete control, read-out: Plant response rating (0 to 100), Oat, Wild): 5% | pest or weed control at 125 g/ha (wild oat; 125 g ai/ha, postemergence, visual rating, scale 0 to 100 (0 no effect, 100 complete control), read-out: Plant response rating, Oat, Wild): 10% | pest or weed control at 62 g/ha (wild oat; Postemergence, 62 g ai/ha, scale 0 to 100 (0 no effect, 100 complete control), read-out: Plant response rating, Oat, Wild): 5% | pest or weed control at 16 g/ha (yellow nutsedge; 16 g ai/ha, postemergence, 0 is no effect, 100 is complete control, read-out: Plant response rating (0 to 100), Nutsedge, Yellow): 0% | pest or weed control at 125 g/ha (yellow nutsedge; 125 g ai/ha, postemergence, visual rating, scale 0 to 100 (0 no effect, 100 complete control), read-out: Plant response rating, Nutsedge, Yellow): 10% | pest or weed control at 62 g/ha (yellow nutsedge; Postemergence, 62 g ai/ha, scale 0 to 100 (0 no effect, 100 complete control), read-out: Plant response rating, Nutsedge, Yellow): 5% | pest or weed control at 16 g/ha (velvetleaf; 16 g ai/ha, postemergence, 0 is no effect, 100 is complete control, read-out: Plant response rating (0 to 100), Velvetleaf): 30% | pest or weed control at 125 g/ha (velvetleaf; 125 g ai/ha, postemergence, visual rating, scale 0 to 100 (0 no effect, 100 complete control), read-out: Plant response rating, Velvetleaf): 55% | pest or weed control at 62 g/ha (velvetleaf; Postemergence, 62 g ai/ha, scale 0 to 100 (0 no effect, 100 complete control), read-out: Plant response rating, Velvetleaf): 20% | pest or weed control at 16 g/ha (barnyardgrass [1]; 16 g ai/ha, postemergence, 0 is no effect, 100 is complete control, read-out: Plant response rating (0 to 100), Barnyardgrass): 5% | pest or weed control at 125 g/ha (barnyardgrass [1]; 125 g ai/ha, postemergence, visual rating, scale 0 to 100 (0 no effect, 100 complete control), read-out: Plant response rating, Barnyardgrass): 5% | pest or weed control at 31 g/ha (barnyardgrass [1]; Postemergence, 31 g ai/ha, scale 0 to 100 (0 no effect, 100 complete control), 13 to 15 days, read-out: Plant response rating, Barnyardgrass): 5% | pest or weed control at 62 g/ha (barnyardgrass [1]; Postemergence, 62 g ai/ha, scale 0 to 100 (0 no effect, 100 complete control), read-out: Plant response rating, Barnyardgrass): 5% | pest or weed control at 16 g/ha (giant foxtail; 16 g ai/ha, preemergence, scale 0 to 100 (0 no effect, 100 complete control), read-out: Foxtail, Giant plant response rating): 30% | pest or weed control at 62 g/ha (giant foxtail; 62 g ai/ha, preemergence, scale 0 (no effect) to 100 (complete control), read-out: Foxtail, Giant plant response rating): 100% | pest or weed control at 125 g/ha (giant foxtail; 125 g ai/ha, preemergence, scale 0 (no effect) to 100 (complete control), read-out: Foxtail, Giant plant response rating): 100% | pest or weed control at 31 g/ha (giant foxtail; Preemergence, 31 g ai/ha, scale 0 to 100, 0 no effect, 100 complete control, read-out: Plant response rating, Foxtail, Giant): 90% | pest or weed control at 125 g/ha (barnyardgrass [2]; 125 g ai/ha, read-out: Barnyardgrass plant response rating): 80% | pest or weed control at 500 g/ha (barnyardgrass [2]; 500 g ai/ha, read-out: Plant response rating, Barnyardgrass): 100% | pest or weed control at 16 g/ha (pigweed; 16 g ai/ha, postemergence, 0 is no effect, 100 is complete control, read-out: Plant response rating (0 to 100), Pigweed): 60% | pest or weed control at 125 g/ha (pigweed; 125 g ai/ha, postemergence, visual rating, scale 0 to 100 (0 no effect, 100 complete control), read-out: Plant response rating, Pigweed): 80% | pest or weed control at 62 g/ha (pigweed; Postemergence, 62 g ai/ha, scale 0 to 100 (0 no effect, 100 complete control), read-out: Plant response rating, Pigweed): 80% | plant injury at 16 g/ha (corn; 16 g ai/ha, preemergence, scale 0 to 100 (0 no effect, 100 complete control), read-out: Corn plant response rating): 0% | plant injury at 62 g/ha (corn; 62 g ai/ha, preemergence, scale 0 (no effect) to 100 (complete control), read-out: Corn plant response rating): 0% | plant injury at 125 g/ha (corn; 125 g ai/ha, preemergence, scale 0 (no effect) to 100 (complete control), read-out: Corn plant response rating): 25% | Corn plant response rating (crop injury, 0 = no effect, 100 = complete kill) at 31 g/ha (corn; Preemergence, 31 g ai/ha, scale 0 to 100, 0 no effect, 100 complete control): 0% | pest or weed control at 16 g/ha (waterhemp; 16 g ai/ha, postemergence, 0 is no effect, 100 is complete control, read-out: Plant response rating (0 to 100), Waterhemp): 60% | pest or weed control at 125 g/ha (waterhemp; 125 g ai/ha, postemergence, visual rating, scale 0 to 100 (0 no effect, 100 complete control), read-out: Plant response rating, Waterhemp): 85% | pest or weed control at 62 g/ha (waterhemp; Postemergence, 62 g ai/ha, scale 0 to 100 (0 no effect, 100 complete control), read-out: Plant response rating, Waterhemp): 75% | pest or weed control at 16 g/ha (johnsongrass; 16 g ai/ha, postemergence, 0 is no effect, 100 is complete control, read-out: Plant response rating (0 to 100), Johnsongrass): 5% | pest or weed control at 125 g/ha (johnsongrass; 125 g ai/ha, postemergence, visual rating, scale 0 to 100 (0 no effect, 100 complete control), read-out: Plant response rating, Johnsongrass): 10% | pest or weed control at 62 g/ha (johnsongrass; Postemergence, 62 g ai/ha, scale 0 to 100 (0 no effect, 100 complete control), read-out: Plant response rating, Johnsongrass): 5% | pest or weed control at 250 g/ha (barnyardgrass [3]): 0%
